Assay results published in patent publication US8569292B2, “Cyclic inhibitors of 11β-hydroxysteroid dehydrogenase 1” (Vitae Pharmaceuticals, Inc., priority 2008, dated 2013).

Key:
[1] = target: CYP3A4 (Homo sapiens, UniProt P08684); assay: Biological Test Example 6: CYP3A4 inhibition (erythromycin N-demethylation); assay type: in vitro ADME
[2] = target: T1, CYP2C9 (Homo sapiens, UniProt P11712); assay: Biological Test Example 7: CYP2C9 inhibition (naproxen O-demethylation); assay type: in vitro ADME
T1 construct: purchased Invitrogen 2859; host or cells: insect cells infected with baculovirus (microsomes)
T1 sequence (P11712 whole entry): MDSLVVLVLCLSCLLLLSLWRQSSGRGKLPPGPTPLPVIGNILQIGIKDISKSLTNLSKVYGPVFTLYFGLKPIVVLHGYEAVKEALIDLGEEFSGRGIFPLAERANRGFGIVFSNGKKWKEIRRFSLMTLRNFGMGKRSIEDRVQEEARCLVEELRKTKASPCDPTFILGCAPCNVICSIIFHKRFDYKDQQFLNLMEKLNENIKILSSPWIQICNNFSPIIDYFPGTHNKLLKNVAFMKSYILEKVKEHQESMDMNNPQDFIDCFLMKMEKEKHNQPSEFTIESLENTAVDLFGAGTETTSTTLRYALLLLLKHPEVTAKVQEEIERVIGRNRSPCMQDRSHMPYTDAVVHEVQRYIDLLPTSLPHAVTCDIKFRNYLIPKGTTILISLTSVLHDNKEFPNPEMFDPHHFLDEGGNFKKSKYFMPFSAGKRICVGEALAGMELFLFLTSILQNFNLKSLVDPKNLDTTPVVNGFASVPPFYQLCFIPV

[3] = target: CYP2C19 (Homo sapiens, UniProt P33261); assay: Biological Test Example 8: CYP2C19 inhibition (diazepam N-demethylation); assay type: in vitro ADME
CYP2C19, sequence (P33261 whole entry): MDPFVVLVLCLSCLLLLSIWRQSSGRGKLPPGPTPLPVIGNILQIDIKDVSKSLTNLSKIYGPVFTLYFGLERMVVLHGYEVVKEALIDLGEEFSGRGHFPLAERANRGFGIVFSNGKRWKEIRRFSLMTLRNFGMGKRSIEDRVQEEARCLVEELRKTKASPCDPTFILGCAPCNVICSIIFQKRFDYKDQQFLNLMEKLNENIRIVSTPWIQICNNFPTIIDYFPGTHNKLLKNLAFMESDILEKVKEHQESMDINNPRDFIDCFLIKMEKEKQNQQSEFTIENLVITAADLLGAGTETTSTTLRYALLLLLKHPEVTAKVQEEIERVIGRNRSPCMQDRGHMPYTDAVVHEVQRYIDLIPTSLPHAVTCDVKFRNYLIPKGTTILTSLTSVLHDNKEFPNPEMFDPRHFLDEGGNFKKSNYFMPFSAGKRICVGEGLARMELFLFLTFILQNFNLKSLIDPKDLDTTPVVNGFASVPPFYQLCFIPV

[4] = target: T2, 11β-HSD1 (Homo sapiens, UniProt P28845); assay: biochemical; conditions: for inhibition at 0.1 µM: read-out: Average % inhibition at 100 nM
T2 sequence (P28845 whole entry): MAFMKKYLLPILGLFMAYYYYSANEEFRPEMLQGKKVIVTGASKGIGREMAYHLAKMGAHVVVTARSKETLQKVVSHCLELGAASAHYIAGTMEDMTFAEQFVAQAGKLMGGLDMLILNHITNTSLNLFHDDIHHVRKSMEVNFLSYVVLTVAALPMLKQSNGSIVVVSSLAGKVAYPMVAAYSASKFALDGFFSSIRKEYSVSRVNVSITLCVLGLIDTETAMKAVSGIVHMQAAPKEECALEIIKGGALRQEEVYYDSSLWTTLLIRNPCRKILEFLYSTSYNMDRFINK

[5] = target: T2, 11β-HSD1; assay: Biological Test Example 4: microsomal 11β-HSD1 in the presence of 50% human plasma; conditions: for Shift: IC50 in Test Example 4 divided by IC50 in Test Example 1
[6] = target: T1, CYP2C9; assay: Biological Test Example 9: CYP2C9 inhibition (Invitrogen kit, fluorogenic OOMR); assay type: in vitro ADME
[7] = Biological Test Example 1 IC50 (nM)
[8] = IC50 Range, Biological Test Example 1

CYP3A4, sequence (P08684 whole entry): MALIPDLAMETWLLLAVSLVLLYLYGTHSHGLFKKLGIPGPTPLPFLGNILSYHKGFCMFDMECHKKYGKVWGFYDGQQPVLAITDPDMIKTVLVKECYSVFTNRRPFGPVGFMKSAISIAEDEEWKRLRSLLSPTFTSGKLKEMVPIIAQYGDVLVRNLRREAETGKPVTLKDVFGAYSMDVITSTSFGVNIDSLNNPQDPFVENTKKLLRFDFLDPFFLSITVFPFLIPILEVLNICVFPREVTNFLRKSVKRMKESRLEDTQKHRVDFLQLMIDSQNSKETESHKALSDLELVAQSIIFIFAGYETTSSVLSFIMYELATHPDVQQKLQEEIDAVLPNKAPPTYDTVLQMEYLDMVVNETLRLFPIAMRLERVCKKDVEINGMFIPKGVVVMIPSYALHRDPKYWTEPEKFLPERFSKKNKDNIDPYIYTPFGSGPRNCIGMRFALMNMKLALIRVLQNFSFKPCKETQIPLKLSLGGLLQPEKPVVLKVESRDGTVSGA

Compound	IC50 [1]	IC50 [2]	IC50 [3]	IC50 [4, 7]	IC50 [4, 8]	inhibition at 0.1 µM [4]	IC50 [5]	Shift [5]	IC50 [6]
Cc1ccc(-c2ccc([C@H](C)N3CC[C@](CC(C)(C)C#N)(c4ccccc4)OC3=O)cc2)nn1 [EXAMPLE 166, 2,2-dimethyl-3-((R)-3-((S)-1-(4-(6-methylpyridazin-3-yl)phenyl)ethyl)-2-oxo-6-phenyl-1,3-oxazinan-6-yl)propanenitrile]	20700 nM	9000 nM	39500 nM	1 nM	< 100 nM	96.5%	2.3 nM	2.3	
C[C@@H](c1ccc(-c2cnc(C(=O)NC3CC3)nc2)cc1)N1CC[C@](CC(C)(C)C#N)(c2ccccc2)OC1=O [EXAMPLE 16, 5-(4-((S)-1-((R)-6-(2-cyano-2-methylpropyl)-2-oxo-6-phenyl-1,3-oxazinan-3-yl)ethyl)phenyl)-N-cyclopropylpyrimidine-2-carboxamide]	24900 nM	> 50000 nM	6100 nM	0.8 nM	< 100 nM	97.9%	5.5 nM	6.9	
C[C@@H](c1ccc(-c2ccncn2)cc1)N1CC[C@](CC(C)(C)O)(c2ccccc2)OC1=O [EXAMPLE 131, (S)-6-(2-hydroxy-2-methylpropyl)-6-phenyl-3-((S)-1-(4-(pyrimidin-4-yl)phenyl)ethyl)-1,3-oxazinan-2-one]	5600 nM	14000 nM	2600 nM	2.2 nM	< 100 nM	98.5%	5.1 nM		11200 nM
C[C@@H](c1ccc(-c2ccc(C3CC3)nn2)cc1)N1CC[C@](CC(C)(C)O)(c2ccccc2)OC1=O [EXAMPLE 4, (S)-3-((S)-1-(4-(6-cyclopropylpyridazin-3-yl)phenyl)ethyl)-6-(2-hydroxy-2-methylpropyl)-6-phenyl-1,3-oxazinan-2-one]	19600 nM	19800 nM	24200 nM	0.7 nM	< 100 nM	96.3%	4 nM	5.8	
C[C@@H](c1ccc(-c2nc(C(=O)NC(C)(C)C)cs2)cc1)N1CC[C@](CC(C)(C)O)(c2ccccc2)OC1=O [EXAMPLE 22, N-tert-butyl-2-(4-((S)-1-((S)-6-(2-hydroxy-2-methylpropyl)-2-oxo-6-phenyl-1,3-oxazinan-3-yl)ethyl)phenyl)thiazole-4-carboxamide]	5200 nM	4500 nM	3600 nM	2.8 nM	< 100 nM	90%	18.1 nM		
Cc1cc(-c2ccc([C@H](C)N3CC[C@](CC(C)(C)O)(c4ccc(F)cc4)OC3=O)cc2)cc(C)n1 [EXAMPLE 144, (S)-3-((S)-1-(4-(2,6-dimethylpyridin-4-yl)phenyl)ethyl)-6-(4-fluorophenyl)-6-(2-hydroxy-2-methylpropyl)-1,3-oxazinan-2-one]	11900 nM	10200 nM	9600 nM	1.2 nM	< 100 nM	98.6%	12 nM	9.8	
C[C@@H](c1ccc(-c2ccc(C(=O)NC(C)(C)C)cn2)cc1)N1CC[C@](CC(C)(C)O)(c2ccccc2)OC1=O [EXAMPLE 163, N-tert-butyl-6-(4-((S)-1-((S)-6-(2-hydroxy-2-methylpropyl)-2-oxo-6-phenyl-1,3-oxazinan-3-yl)ethyl)phenyl)nicotinamide]	15900 nM	6900 nM	10900 nM	1.6 nM	< 100 nM	90.3%	5.9 nM		
C[C@@H](c1ccc(-c2cnc(C(=O)NC3CC3)nc2)cc1)N1CC[C@](CC(C)(C)O)(c2ccccc2)OC1=O [EXAMPLE 15, N-cyclopropyl-5-(4-((S)-1-((S)-6-(2-hydroxy-2-methylpropyl)-2-oxo-6-phenyl-1,3-oxazinan-3-yl)ethyl)phenyl)pyrimidine-2-carboxamide]	> 50000 nM	> 50000 nM	12500 nM	1.7 nM	< 100 nM	94.1%	4.2 nM	2.4	
COc1ccc(-c2ccc([C@H](C)N3CC[C@](CC(C)(C)O)(c4ccccc4)OC3=O)cc2)cn1 [EXAMPLE 93, (S)-6-(2-hydroxy-2-methylpropyl)-3-((S)-1-(4-(6-methoxypyridin-3-yl)phenyl)ethyl)-6-phenyl-1,3-oxazinan-2-one]	11600 nM	8000 nM	11400 nM						8000 nM
C[C@@H](c1ccc(-c2ncc(C(=O)N(C)C)s2)cc1)N1CC[C@](CC(C)(C)O)(c2ccccc2)OC1=O [EXAMPLE 158, 2-(4-((S)-1-((S)-6-(2-hydroxy-2-methylpropyl)-2-oxo-6-phenyl-1,3-oxazinan-3-yl)ethyl)phenyl)-N,N-dimethylthiazole-5-carboxamide]	> 50000 nM	> 50000 nM	> 50000 nM	2.1 nM	< 100 nM	95.7%	12.9 nM		
Cc1nnc(-c2ccc([C@H](C)N3CC[C@](CC(C)(C)O)(c4ccccc4)OC3=O)cc2)s1 [EXAMPLE 172, (S)-6-(2-Hydroxy-2-methyl-propyl)-3-{(S)-1-[4-(5-methyl-[1,3,4]thiadiazol-2-yl)-phenyl]-ethyl}-6-phenyl-[1,3]oxazinan-2-one]	> 50000 nM	38100 nM	44400 nM	3.3 nM	< 100 nM	97.9%	10.6 nM		
C[C@@H](c1ccc(-c2ccc(C(=O)N(C)C)cn2)cc1)N1CC[C@](CC(C)(C)O)(c2ccccc2)OC1=O [EXAMPLE 156, 6-(4-((S)-1-((S)-6-(2-hydroxy-2-methylpropyl)-2-oxo-6-phenyl-1,3-oxazinan-3-yl)ethyl)phenyl)-N,N-dimethylnicotinamide]	> 50000 nM	> 50000 nM	47600 nM	1.1 nM	< 100 nM	96.4%	10.1 nM		
C[C@@H](c1ccc(-c2ncc(F)cn2)cc1)N1CC[C@](CC(C)(C)O)(c2ccccc2)OC1=O [EXAMPLE 13, (S)-3-((S)-1-(4-(5-fluoropyrimidin-2-yl)phenyl)ethyl)-6-(2-hydroxy-2-methylpropyl)-6-phenyl-1,3-oxazinan-2-one]	> 10000 nM	> 10000 nM	> 10000 nM	1.8 nM	< 100 nM	92.1%	10.5 nM		
C[C@@H](c1ccc(-c2ccc(C#N)cn2)cc1)N1CC[C@](CCCO)(c2ccc(F)cc2)OC1=O [EXAMPLE 101, 6-(4-((S)-1-((R)-6-(4-fluorophenyl)-6-(3-hydroxypropyl)-2-oxo-1,3-oxazinan-3-yl)ethyl)phenyl)nicotinonitrile]	> 50000 nM	9900 nM	> 50000 nM	1.2 nM	< 100 nM	100%	7.5 nM	6.0	
CCOc1ncc(-c2ccc([C@H](C)N3CC[C@](CC(C)(C)O)(c4ccccc4)OC3=O)cc2)cc1C [EXAMPLE 160, (S)-3-((S)-1-(4-(6-ethoxy-5-methylpyridin-3-yl)phenyl)ethyl)-6-(2-hydroxy-2-methylpropyl)-6-phenyl-1,3-oxazinan-2-one]	4500 nM	2300 nM	1700 nM	1 nM	< 100 nM	95%	17.4 nM	17.5	
Cc1cc(-c2ccc([C@H](C)N3CC[C@](CC(C)(C)O)(c4ccccc4)OC3=O)cc2)cc(C)n1 [EXAMPLE 139, (S)-3-((S)-1-(4-(2,6-dimethylpyridin-4-yl)phenyl)ethyl)-6-(2-hydroxy-2-methylpropyl)-6-phenyl-1,3-oxazinan-2-one]	> 50000 nM	21400 nM	18200 nM						9900 nM
C[C@@H](c1ccc(-c2nc(C(=O)NC3CC3)cs2)cc1)N1CC[C@](CC(C)(C)O)(c2ccccc2)OC1=O [EXAMPLE 19, N-cyclopropyl-2-(4-((S)-1-((S)-6-(2-hydroxy-2-methylpropyl)-2-oxo-6-phenyl-1,3-oxazinan-3-yl)ethyl)phenyl)thiazole-4-carboxamide]	27100 nM	31700 nM	10300 nM	1.9 nM	< 100 nM	94.6%	19.8 nM	10.4	
C[C@@H](c1ccc(-c2ccc(C(=O)NC(C)(C)C)cn2)cc1)N1CC[C@](CC(C)(C)C#N)(c2ccccc2)OC1=O [EXAMPLE 3, N-tert-butyl-6-(4-((S)-1-((R)-6-(2-cyano-2-methylpropyl)-2-oxo-6-phenyl-1,3-oxazinan-3-yl)ethyl)phenyl)nicotinamide]	2100 nM	2500 nM	3000 nM	1 nM	< 100 nM	96.8%	7.9 nM	8.0	
C[C@@H](c1ccc(-c2ccc(C(=O)NC3CC3)cn2)cc1)N1CC[C@](CC(C)(C)O)(c2ccccc2)OC1=O [EXAMPLE 161, N-cyclopropyl-6-(4-((S)-1-((S)-6-(2-hydroxy-2-methylpropyl)-2-oxo-6-phenyl-1,3-oxazinan-3-yl)ethyl)phenyl)nicotinamide]	> 50000 nM	36000 nM	10500 nM	1.1 nM	< 100 nM	95.1%	3.9 nM		
